In US5157020A, “Synthetic senescent cell antigen” (Research Corporation Tech., Inc., priority 1990, dated 1992):
Entries after “also recorded” stand apart in the source; their conditions may differ. Where a SMILES comes first, the peptide text is derived from it.

Key:
[1] = Solubility of peptides in physiologic solutions; format: physicochemical; conditions: even when coupled to BSA
Experimental: Peptides. Peptides were prepared by solid phase synthesis using an Applied Biosystems 430A automatic peptide synthesizer. They were analyzed by amino acid analysis, HPLC, sequencing, and/or FABS to determine purity. Amino acids are referred to by the standard single letter code. Peptides that are not soluble in phosphate buffered saline were dissolved in 1-2% NaDodSO4. Others were solubilized in acetic acid or trifluoroacetic acid, and sodium dodecyl sulfate (1-2%) is added. Once the peptides were in solution, they were conjugated to ovalbumin (5X crystallized) or BSA with 0.02% glutaraldehyde (32). The reaction was allowed to proceed for 30-60 min. blocked with ethanolamine, and the conjugate dialysed against PBS in tubing with a molecular weight cut off of ≤1000.

[2] = tested on: senescent cell IgG; test: IgG binding and inhibition assay (competitive inhibition of senescent cell IgG binding to stored erythrocytes, 125I-Protein A); design: species or system human; conditions: for INHIBITION (%) of senescent cell IgG binding: Table 1, peptides 300 ug, senescent cell IgG 3 ug, 90 mins at room temperature, mean ± 1 SD of quadruplicate samples; for inhibition of senescent cell IgG binding (in words): competitive inhibition assay; for INHIBITION (%) of senescent cell IgG binding to erythrocytes, before or after DIDS modification: Table 4, 30 ug, stored red cells, ± SD, unmodified ANION 1 and COOH from a separate experiment
Experimental: IgG binding and inhibition assay. IgG was isolated from senescent RBC from 50 liters of blood and purified with Protein A Sepharose as previously described (2, 4). IgG eluted from senescent cells (SCIgG), rather than serum IgG, was used because normal serum contains antibodies to spectrin, actin, 2.1, etc. (28). Competitive inhibition studies were performed using synthetic peptides to absorb the IgG isolated from senescent erythrocytes. Intact dimeric, senescent cell IgG containing the Fc portion binds to senescent cells in situ and initiates their removal (1-7, 30). Fab fragments were not used because we were simulating the physiological situation. IgG isolated from aged erythrocytes binds specifically to senescent cells. […] Moreover, the specific binding capacity of the autoantibody was eliminated by absorption with purified senescent cell antigen (SCA; 7). […] Storage mimics normal aging in situ immunologically and biochemically (1-7, 30). The number of red cell-bound IgG molecules was quantitated before and after absorption using equilibrium binding kinetics (7, 30, 31). Details of the methods are given elsewhere (27). Percent inhibition was calculated from the following formula: 100[1-(x-b/T-b)] where x=molecules of IgG autoantibody bound per cell; T=total number of IgG antibody molecules bound in the absence of inhibitor; b=background Protein A binding.
Competitive inhibition studies were performed using synthetic peptides to absorb the IgG isolated from senescent erythrocytes. IgG binding and inhibition were determined with a protein A binding assay. This biological assay measures the fate of erythrocytes in vitro and in vivo (1, 2, 4).
IgG binding and inhibition assay. Competitive inhibition studies were performed using synthetic peptides to absorb the IgG isolated from senescent erythrocytes. This is the same IgG that initiates phagocytosis in situ. The Fc portion IgG is required for binding and phagocytosis of cells by macrophages (3, 2, 4, 7, 29). Fab fragments were not used because we were simulating the physiological situation. Intact dimeric, senescent cell IgG containing the Fc portion binds to senescent cells in situ and initiates their removal (3, 32, 2, 4, 6, 17, 7). Only IgG isolated from aged erythrocytes binds specifically to senescent cells. […] Moreover, the specific binding capacity of the autoantibody was eliminated by absorption with purified senescent cell antigen (39). […] Storage mimics normal aging in situ immunologically and biochemically (32, 2, 4, 6, 29, 7). After incubation with absorbed IgG, cells were washed four times with 40-50 volumes of phosphate buffered saline containing 0.2% bovine serum albumin (BSA, fraction V, Sigma, St. Louis, Mo.) and 0.5% glucose. Washed cells were transferred to BSA-coated tubes (5×10^7 cells/50 ul) and incubated for 30 min. at 37° C. with ^125 I-Protein A (Amersham, Arlington Heights, Ill. 30-38 mCi/mg, 10-15 ng/tube). Cells were then washed four times and transferred to new tubes before counting in a gamma scintillation counter (Beckman, Gamma 5,500). The number of red cell-bound IgG molecules was quantitated before and after absorption using equilibrium binding kinetics (7).
Scatchard analysis was performed. Scathard, NY Acad. Sci. 51:660-672 (1949), incorporated herein by reference. Percent inhibition was calculated from the following formula: 100[1-(x-b/T-b)] where x=molecules of IgG autoantibody bound per cell; T=total number of IgG antibody molecules bound in the absence of inhibitor; b=background Protein A binding.

[3] = tested on: erythrocyte anion transport; test: Peptide inhibition of sulfate influx (anion transport) in erythrocytes; format: cell-based, human; conditions: for inhibition of anion transport (in words): equimolar amounts of peptide and sulfate
Experimental: Anion transport and DIDS inhibition measurements. Sulfate exchange is inhibited by […]. Stilbenedisulfonate derivatives such as DIDS inhibit anion transport by binding to at least two lysine residues in the membrane-spanning region of band 3 (45, 23, 35).
Peptide inhibition of sulfate "influx" experiments were performed essentially according to method of Jennings (46) using 300 mM sucrose, 10 mM Tris-HEPES, pH 7.0, as the "influx" buffer (47). Washed cells were incubated in 20-30 volumes of 110 mM K2 SO4 for 10 min at 37° C. to replace intracellular chloride. The cells were centrifuged and the supernatant removed and replaced with 110 mM K2 SO4 for 10 min. This was repeated 3 times. After the last centrifugation, cells were resuspended 300 mM sucrose, 10 mM Tris-HEPES, pH 7.0, and washed once. Cells were suspended to 2×10^8 cells/ml in 2 ml influx buffer at 37° C. Radioactive sulfate (0.01 mM) was added (582 mCi/mM) at suitable time intervals. Samples were taken and added to 18 volumes of ice cold 1.15% KCl (154 mM KCl) buffered to pH 7.4 with MOPS ("wash buffer"). The high chloride concentration, temperature, and pH all inhibit sulfate transport. Cells were washed twice to remove external sulfate at 0° C. with wash buffer. All samples were deproteinized with trichloracetic acid (final concentration 6.7%) and counted with Ready-Solv HP/6 (Beckman, Fullerton, Calif.) in a liquid scintillation counter. For peptide inhibition of sulfate transport, 0.01 mM of peptide(s) were added to the radioactive sulfate prior to addition to cells suspended in influx buffer.

[4] = tested on: senescent cell IgG; test: Immunoblotting of synthetic peptides with IgG autoantibody from senescent erythrocytes; format: binding, human; conditions: autoradiograph of immunoblot, FIG. 4
Experimental: Sodium dodecyl sulfate (NaDodSO4) polyacrylamide gel electrophoresis and immunostaining of peptides. Peptides were analyzed on 6-25% or 12-25% linear gels (6, 7, 27-29). Immunoautoradiography was performed by immunoblotting as described previously (6, 7, 28-30). Immunoblots were exposed to Kodak Ortho G (OG-1) film at -70° C. using our standard procedures (30, 45).
We used immunoblotting of the peptides followed by reaction with IgG eluted from senescent red cells (SCIgG) to localize the aging antigen site (FIG. 4A and B). We also used the IgG binding and inhibition assay at a singe concentration of peptide and performed Scatchard analysis (Table 2). […] Peptides that were negative by immunoblotting were also negative in the inhibition assay (FIG. 4 and Table 2).

[5] = at concentrations up to / as high as 100 ug
[6] = equimolar peptide and sulfate (0.01 mM)

Molecule | solubility [1] | INHIBITION (%) of senescent cell IgG binding [2] [%] | inhibition of senescent cell IgG binding (in words) [2] | inhibition of anion transport (in words) [3] | binding of senescent cell IgG to peptide in immunoblots [4] | other results
CC[C@H](C)[C@H](NC(=O)CNC(=O)[C@H](Cc1ccccc1)NC(=O)[C@H](CC(C)C)NC(=O)[C@@H](NC(=O)[C@H](C)NC(=O)[C@H](CC(C)C)NC(=O)[C@@H]1CCCN1C(=O)[C@@H](NC(=O)[C@H](CCCNC(=N)N)NC(=O)[C@H](CO)NC(=O)[C@H](CC(C)C)NC(=O)[C@@H](NC(=O)[C@@H]1CCCN1C(=O)[C@H](CCC(=O)O)NC(=O)[C@@H](N)CCSC)[C@@H](C)CC)[C@@H](C)CC)C(C)C)C(=O)N[C@@H](Cc1ccccc1)C(=O)N[C@@H](CC(C)C)C(=O)O [776-793, MEPILSRIPLAVLFGIFL] (H-MEPILSRIPLAVLFGIFL-OH) | not completely soluble |  |  |  |  | 
CC[C@H](C)[C@H](NC(=O)CNC(=O)[C@H](CO)NC(=O)[C@H](CC(C)C)NC(=O)[C@H](CO)NC(=O)[C@@H](NC(=O)[C@@H](NC(=O)CNC(=O)[C@H](CCSC)NC(=O)[C@H](Cc1ccc(O)cc1)NC(=O)[C@H](CC(C)C)NC(=O)[C@H](Cc1ccccc1)NC(=O)[C@@H](NC(=O)CNC(=O)[C@@H](N)Cc1ccccc1)[C@@H](C)CC)C(C)C)[C@@H](C)O)C(=O)N[C@@H](CCC(N)=O)C(=O)N[C@@H](CC(C)C)C(=O)O [789-805, FGIFLYMGVTSLSGIQL] (H-FGIFLYMGVTSLSGIQL-OH) | not completely soluble |  |  |  |  | 
CC[C@H](C)[C@H](NC(=O)CNC(=O)[C@H](CO)NC(=O)[C@@H](N)CC(C)C)C(=O)N[C@@H](CCC(N)=O)C(=O)N[C@@H](CC(C)C)C(=O)N[C@@H](Cc1ccccc1)C(=O)N[C@@H](CC(=O)O)C(=O)N[C@@H](CCCNC(=N)N)C(=O)N[C@H](C(=O)N[C@@H](CC(C)C)C(=O)N[C@@H](CC(C)C)C(=O)N[C@@H](CC(C)C)C(=O)N[C@@H](Cc1ccccc1)C(=O)N[C@@H](CCCCN)C(=O)N1CCC[C@H]1C(=O)N1CCC[C@H]1C(=O)N[C@@H](CCCCN)C(=O)N[C@@H](Cc1ccc(O)cc1)C(=O)O)[C@@H](C)CC [800-818, LSGIQLFDRILLLFKPPKY] (H-LSGIQLFDRILLLFKPPKY-OH) | not completely soluble |  |  |  |  | 
AGVANQLLDRFIFEDQ [CYTO, reference compound] |  | 0 | does not inhibit |  |  | 
FKPPKY (UniProt P02730 813-818, looked up, fragment) [N6] |  |  |  | potent inhibitors of anion transport |  | inhibition of senescent cell IgG binding ([2]; at 10 ug): 48±1%; inhibition of senescent cell IgG binding ([2]; at 10 ug, listed as COOH hexamer (N6)): ~ 50%
LFKPPKYHPDVPYVKR [COOH] |  | 99 ± 1 | inhibitory over a range of 3 to 100 ug | potent inhibitors of anion transport | binding | inhibition of anion transport ([3]; at 5 min, FIG. 7, compared to control without peptide): 52±3%; INHIBITION (%) of senescent cell IgG binding to erythrocytes, before or after DIDS modification [2]: 20 ± 1%; inhibition of senescent cell IgG binding [2, 5]: ≤ 50%
LRKFKNSSYFPGKLR [ANION 2] |  | 30 ± 12 | only slightly inhibitory; also recorded: only weakly inhibitory |  | bound | inhibition of anion transport [3, 6]: 38±4%
QKLSVPDGFKVSNSSARGW [GLYCOS] |  |  | only weakly inhibitory |  | Binding of antibody | INHIBITION (%) of senescent cell IgG binding to erythrocytes ([2]; Table 2, all peptides tested at 30 ug, ± standard deviation): 9 ± 0%
SKLIKIFQDHPLQKTYN [ANION 1] |  | 88 ± 7 | inhibitory over a range of 3 to 100 ug | does not inhibit anion transport | trace binding | inhibition of anion transport [3, 6]: 8±7%; INHIBITION (%) of senescent cell IgG binding to erythrocytes, before or after DIDS modification [2]: 32 ± 2%; inhibition of senescent cell IgG binding [2, 5]: ≤ 50%
YHPDVPYVKR [818-827] |  |  |  |  |  | percent inhibition of senescent cell IgG binding ([2]; FIG. 2 legend, 12.2 ug): 54±7; inhibition of senescent cell IgG binding ([2]; at 30 ug): 54±3%
